Measurements: patent US8501992B2, “Hydroxyphenyl sulfonamides as antiapoptotic bcl inhibitors” (Bristol-Myers Squibb Company, priority 2008, dated 2013)

Experiments:
Format in all cases: binding
[1] = molecular target: T1, Bcl-b (Homo sapiens, UniProt Q9HD36); assay: Bclb/Bim fluorescence polarization assay (FPA); conditions: BIM BH3 peptide 5 nM, Bcl-b 40 nM, Ki calculated from FPA data
T1 construct: without their C-terminal transmembrane domain; GST; made in house
T1 sequence (Q9HD36 1-182 limits assumed): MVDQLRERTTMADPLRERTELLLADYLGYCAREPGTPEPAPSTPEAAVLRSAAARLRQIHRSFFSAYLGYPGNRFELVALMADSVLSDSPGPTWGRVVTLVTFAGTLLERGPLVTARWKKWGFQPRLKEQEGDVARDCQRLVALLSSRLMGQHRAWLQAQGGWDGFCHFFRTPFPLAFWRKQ
From the text: (§1) Compounds were profiled for their ability to disrupt in vitro binding interactions in fluorescence polarization assays (FPAs) using synthetic fluorochrome-labeled Bcl homology 3 (BH3) peptides derived from BIM [(FAM)-Ahx-[…]-NH2 (SEQ ID NO: 1) (GenBank Accession No. O43521)] or BAK [Ac-GQVGRQLAIIGE-LYS(FAM)-INR-NH2 (SEQ ID NO:2) (GenBank Accession No. Q16611) amino acid sequences and four bacterial recombinant proteins [Bcl-b (GenBank Accession No. Q9HD36), Bcl-2 (GenBank Accession No. P10415), Bcl-Xl (GenBank Accession No. Q07817), Mcl-1 (GenBank Accession No. Q07820)] without their C-terminal transmembrane domain. Proteins were purified from bacterial lysates using their glutathione S-transferase (GST)-tag (Bcl-b, Bcl-2, Mcl-1) or His6-tag (Bcl-Xl) and following one-step affinity chromatography procedures. Dissociation constants (Kd) for peptide binding protein were determined by fluorescence polarization in FPAs measuring BIM BH3 peptide binding Bcl-b, Mcl-1 or Bcl-2 protein or BAK BH3 peptide binding Bcl-Xl protein. The Kd values were generated by fitting the experimental data using a sigmoidal dose-response nonlinear regression model.
(§2) Compound inhibitory concentration values, IC50 (50% reduction in fluorescence polarization), were determined using fluorochrome-labeled BH3 peptides and recombinant Bcl proteins in fluorescence polarization assays (FPAs). Compounds diluted in DMSO (0.5 ul) were transferred (in duplicate) to individual wells of a 384-well plate. The fluorochrome-labeled peptide was added followed by recombinant protein addition. Each binding FPA reaction (50 ul) contained BIM BH3 peptide (5 nM) or BAK BH3 peptide (1.5 nM) and Bcl-b (40 nM), Mcl-1 (28 nM), Bcl-2 (11 nM) or Bcl-Xl. (5 nM) protein suspended in assay buffer [20 mM sodium phosphate, pH 7.4, 1 mM EDTA, 50 mM NaCl., 0.05% Pluronic F68]. Reaction mixtures were incubated at ambient temperature for 60 minutes prior to measuring polarization (mP) using an Analyst (LJL, Molecular Devices, Sunnyvale, Calif.) programmed to detect an emission wavelength of 530 nm after excitation (excitation wavelength=485 nm).
(§3) Competitive compound inhibition constants (Ki) were calculated using FPA experimental data and a mathematical equation, Ki=[I]50/([L]50/Kd+[P]0/Kd+1), where [I]50 denotes free inhibitor concentration at 50% inhibition, [L]50 is free labeled ligand concentration at 50% inhibition, [P]0 is free protein concentration at 0% inhibition, and Kd is the dissociation constant of the protein-ligand complex.

[2] = molecular target: T2, Mcl-1 (Homo sapiens, UniProt Q07820); assay: Mcl-1/Bim fluorescence polarization assay (FPA); conditions: BIM BH3 peptide 5 nM, Mcl-1 28 nM, Ki calculated from FPA data
T2 construct: without their C-terminal transmembrane domain; GST; made in house
T2 sequence (Q07820 1-327 limits assumed): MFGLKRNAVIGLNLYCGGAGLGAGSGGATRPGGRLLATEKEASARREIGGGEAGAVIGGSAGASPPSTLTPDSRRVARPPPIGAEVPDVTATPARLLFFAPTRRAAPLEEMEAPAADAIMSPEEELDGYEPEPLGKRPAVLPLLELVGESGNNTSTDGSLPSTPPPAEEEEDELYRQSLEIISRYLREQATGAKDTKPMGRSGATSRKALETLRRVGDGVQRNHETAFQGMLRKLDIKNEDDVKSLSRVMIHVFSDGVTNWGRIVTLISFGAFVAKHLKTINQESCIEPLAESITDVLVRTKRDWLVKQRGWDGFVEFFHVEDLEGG
From the text: as §1, §2, §3

[3] = molecular target: T3, Bcl-2 (Homo sapiens, UniProt P10415); assay: Bcl2/Bim fluorescence polarization assay (FPA); conditions: BIM BH3 peptide 5 nM, Bcl-2 11 nM, Ki calculated from FPA data
T3 construct: without their C-terminal transmembrane domain; GST; made in house
T3 sequence (P10415 1-211 limits assumed): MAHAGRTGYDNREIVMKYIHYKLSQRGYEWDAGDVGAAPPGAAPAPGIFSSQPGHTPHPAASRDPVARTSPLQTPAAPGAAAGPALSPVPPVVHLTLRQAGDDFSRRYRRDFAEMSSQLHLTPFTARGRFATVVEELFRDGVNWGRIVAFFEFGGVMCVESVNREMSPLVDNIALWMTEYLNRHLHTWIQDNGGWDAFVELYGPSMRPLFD
From the text: as §1, §2, §3

Row | SMILES | Ki [1] [nM] | Ki [2] [nM] | Ki [3] [nM]
1 | COc1c(Cl)cc(CN(CCn2ccc3ccccc32)S(=O)(=O)c2cc(C(=O)NCc3ccccc3)cc(Cl)c2O)cc1-c1ccc(Cl)cc1 [Example 222, 3-(N-(2-(1H-Indol-1-yl)ethyl)-N-((4′,5-dichloro-6-methoxybiphenyl-3-yl)methyl)sulfamoyl)-N-benzyl-5-chloro-4-hydroxybenzamide] | 30 | 30 | 170
2 | COC(=O)c1cc(Cl)cc(S(=O)(=O)N(Cc2ccc(F)cc2)Cc2cccc(-c3ccc(Cl)cc3)c2)c1O [Example 226, Methyl 5-chloro-3-(N-((4′-chloro-biphenyl-3-yl)methyl)-N-(4-fluorobenzyl)sulfamoyl)-2-hydroxybenzoate] | 500 | 2280 | 3730
3 | O=S(=O)(c1cc(Cl)cc(Cl)c1O)N(Cc1ccc(F)cc1)Cc1cccc(-c2ccc(Cl)cc2)c1 [Example 232, 3,5-Dichloro-N-((4′-chlorobiphenyl-3-yl)methyl)-N-(4-fluorobenzyl)-2-hydroxybenzenesulfonamide] | 90 | 50 | 90
4 | CCCCCCCCc1ccc(CN(Cc2cccc(Oc3ccc(F)cc3)c2)S(=O)(=O)c2cc(Cl)cc(Cl)c2O)cc1 [Example 235, 3,5-Dichloro-N-(3-(4-fluorophenoxy)benzyl)-2-hydroxy-N-(4-octylbenzyl)benzenesulfonamide] | 60 | 40 | 80
5 | COc1c(CN(Cc2ccc(F)cc2)S(=O)(=O)c2cc(Cl)cc(Cl)c2O)cccc1-c1ccc(Cl)cc1 [Example 240, 3,5-Dichloro-N-((4′-chloro-2-methoxybiphenyl-3-yl)methyl)-N-(4-fluorobenzyl)-2-hydroxybenzenesulfonamide] | 110 | 470 | 120
6 | CCCCc1ccc(-c2cccc(CN(Cc3ccc(F)cc3)S(=O)(=O)c3cc(Cl)cc(Cl)c3O)c2)cc1 [Example 256, N-((4′-Butylbiphenyl-3-yl)methyl)-3,5-dichloro-N-(4-fluorobenzyl)-2-hydroxybenzenesulfonamide] | 140 | 2120 | 130
7 | Cc1cccc(CN(Cc2ccc(F)cc2)S(=O)(=O)c2cc(Cl)cc(Cl)c2O)c1 [Example 266, 3,5-Dichloro-N-(4-fluorobenzyl)-2-hydroxy-N-(3-methylbenzyl)benzenesulfonamide] | 300 | 1680 | 720
8 | O=S(=O)(c1cc(Cl)cc(Cl)c1O)N(Cc1ccc(Cl)cc1)Cc1cccc(-c2ccc(Cl)cc2)n1 [Example 274, 3,5-Dichloro-N-(4-chlorobenzyl)-N-((6-(4-chlorophenyl)pyridin-2-yl)methyl)-2-hydroxybenzenesulfonamide] | 450 | 1570 | 520
